Experimental data published in patent publication US8716292B2, “Riminophenazines with 2-(heteroaryl)amino substituents and their anti-microbial activity” (priority 2010, dated 2014).
In brackets after ≈: the same amount, converted by molar mass. Like-named read-outs stand apart in the source and are kept apart here.

Columns and labels:
[1] = tested on: Mycobacterium tuberculosis; conditions: relative to clofazimine; cited from earlier work
[2] = tested on: Mycobacterium tuberculosis H37Rv strains; assay: In vitro assay for antimicrobial susceptibility (microplate Alamar blue MIC); assay type: cell-based; conditions: Mycobacterium tuberculosis, H37RV, in vitro, Mycobacterium tuberculosis H37Rv strains; read-out: MIC (μg/mL) against H37Rv
tuberculosis [3] = conditions: guinea pig model; cited from earlier work
tuberculosis [4] = conditions: monkey model; cited from earlier work
tuberculosis [5] = conditions: hamsters; cited from earlier work
[6] = in vivo; cited from earlier work
tuberculosis [7] = conditions: mice; cited from earlier work

## CCN(CC)CCC/N=c1\cc2n(-c3ccc(Cl)c(Cl)c3)c3ccccc3nc-2cc1Nc1ccc(Cl)c(Cl)c1 [B4154]
[1]
  in vitro activity: improved in vitro activity

## Clc1ccc(-n2c3c/c(=N\C4CCCCC4)c(Nc4cccnc4)cc-3nc3ccccc32)cc1 [TBI-422, 5-(4-Chlorophenyl)-3-cyclohexylimino-2-(3-pyridyl)amino-3,5-dihydrophenazine]
[2]
  MIC: 0.06 µg/mL (≈ 0.125 µM)
other
  melting point: 194 to 196 °C

## CC(C)/N=c1\cc2n(-c3ccc(Cl)cc3)c3ccccc3nc-2cc1Nc1ccc(Cl)cc1 [clofazimine]
Tuberculosis [3]
  efficacy: failed to show efficacy
Tuberculosis [4]
  efficacy: failed to show efficacy
Tuberculosis [5]
  in vivo anti-TB activity: demonstrated in vivo anti-TB activity
[6]
  half-life: 70 days
Tuberculosis [7]
  in vivo anti-TB activity: demonstrated in vivo anti-TB activity

## CC(C)/N=c1\cc2n(-c3cccc(F)c3)c3ccccc3nc-2cc1Nc1cccnc1 [TBI-522, 5-(3-Fluorophenyl)-3-(1-methylethyl)imino-2-(3-pyridyl)amino-3,5-dihydrophenazine]
[2]
  MIC: 0.062 µg/mL (≈ 0.146 µM)
other
  melting point: 164 to 166 °C
